The results in this text go back to publication PMC6274048, “Chemical Constituents of Malaysian U. cordata var. ferruginea and Their in Vitro α-Glucosidase Inhibitory Activities” (Molecules, 2016).

This experiment concerns the target α-glucosidase enzyme (type 1 from Baker's yeast) (Saccharomyces cerevisiae, UniProt P53341). Nature of the experiment: α-Glucosidase inhibitory assay (p-nitrophenyl-α-D-glucopyranoside substrate, absorbance at 405 nm). It counts as biochemical. As to conditions: for inhibition at 1000 µg/mL: Concentration: 1 mg/mL, Means ± SD, n = 3; for IC50: α-glucosidase inhibition. The procedure: The method of α-glucosidase inhibitory assay was adopted from Ahmad et al. with minor modification. The plant samples (extract/fraction/compound) were prepared in 5% DMSO at a concentration of 1000 μg/mL. A series of dilutions for each sample were prepared to give concentrations of 1000, 500, 250, 125, 62.5 and 31.25 μg/mL. Then, about 10 μL of sample, 20 μL of α-glucosidase enzyme solution (type 1 from Baker’s yeast), phosphate buffer saline (40 μL at pH 6.5) and deionized water (20 μL) were mixed in a 96-well plate. The mixture was incubated at 37 °C. After 10 min, 10 μL of 20 mM p-nitrophenyl-α-D-glucopyranoside solution was added into the mixture and absorbance at time 0 min was measured by the spectrophotometer (λ = 405 nm). Then, the reaction mixture was incubated at 37 °C for 30 min and the absorbance was measured. […] Experiments were performed in triplicates with three independent experiments. The percentage inhibitory activity was calculated using the following equation: (1) Inhibition (%)=(A30 min–A0 min) control – (A30 min – A0 min) sample × 100/(A30 min–A0 min) control where A is the absorbance of mixture measured at 405 nm.

Where two headings read alike, the source gives them in different places.

Chain of α-glucosidase enzyme (type 1 from Baker's yeast) (P53341 whole entry): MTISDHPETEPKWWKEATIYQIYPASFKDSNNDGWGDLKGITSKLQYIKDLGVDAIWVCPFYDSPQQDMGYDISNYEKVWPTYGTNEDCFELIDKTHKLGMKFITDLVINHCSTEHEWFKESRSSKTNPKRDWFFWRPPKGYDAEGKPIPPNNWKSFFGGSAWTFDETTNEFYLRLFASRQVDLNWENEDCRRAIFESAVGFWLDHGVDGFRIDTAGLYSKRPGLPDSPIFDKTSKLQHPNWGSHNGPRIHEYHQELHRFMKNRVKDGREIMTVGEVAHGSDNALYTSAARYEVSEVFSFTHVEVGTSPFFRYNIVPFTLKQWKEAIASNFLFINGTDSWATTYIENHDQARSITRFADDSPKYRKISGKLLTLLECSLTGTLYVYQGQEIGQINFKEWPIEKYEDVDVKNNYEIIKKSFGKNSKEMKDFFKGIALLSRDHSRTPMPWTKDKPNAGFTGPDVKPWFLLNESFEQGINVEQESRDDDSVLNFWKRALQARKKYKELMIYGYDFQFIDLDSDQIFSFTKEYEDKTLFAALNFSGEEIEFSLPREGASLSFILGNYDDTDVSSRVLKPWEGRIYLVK

Broadly, the inhibition is how much of the control response was suppressed. A lower inhibition goes with a weak effect. Turning to `O=C(O)c1ccc(O)cc1O` [2,4-DHBA, 2,4-Dihydroxybenzoic acid], testing at 1000 µg/mL gave an inhibition of 78.8 ± 0.4%. For the same compound, the IC50 (dilution series 1000-31.25 μg/mL, read-out: IC50 (μg/mL) (converted)) is 3.56 mM. Where the note is “same IC50 in molar units, read-out: IC50”, the IC50 was 3.56 mM.
On to `COC(=O)C1=CO[C@@H](O[C@@H]2O[C@H](CO)[C@@H](O)[C@H](O)[C@H]2O)[C@@H]2[C@@H](C)[C@@H](O)C[C@H]12` [Loganin], for which at 1000 µg/mL the inhibition was 44.9 ± 0.7%.
Same read-out and setting: the value for `COc1cc2ccc(=O)oc2cc1O` [Scopoletin] was 34.5 ± 0.4%; that for `C[C@H]1O[C@H](O[C@H]2[C@H](O)[C@@H](O)[C@@H](O[C@H]3[C@H](O)[C@@H](O)C(O)O[C@@H]3CO)O[C@@H]2CO)[C@H](O)[C@@H](O)[C@@H]1N[C@H]1C=C(CO)[C@@H](O)[C@H](O)[C@H]1O` (stereo partly shown) [Acarbose, reference compound] was 90.9 ± 2.7%; that for `O=c1c(O)c(-c2ccc(O)c(O)c2)oc2cc(O)cc(O)c12` [Quercetin] was 84.5 ± 0.6%.
